Experimental data reported in patent US4339535A, “Process for preparing antibiotic EM 4940” (E. R. Squibb & Sons, Inc., priority 1980, dated 1982).
Converted amounts (≈) assume the structure as drawn. Where two headings read alike, the source gives them in different places.

What was measured:
Shigella sonnei = experiment: MIC aerobic screen, H-59 synthetic agar; type: cell-based; details: Table III, H-59 agar, strain 8449, read-out: Minimum Inhibitory Concentration
Text: (A) Using H-59 Synthetic Agar

Bifidobacterium dentium = experiment: MIC anaerobic screen; type: cell-based; details: Table IV, strain 11,260, read-out: Minimum Inhibitory Concentration
Clostridium perfringens = experiment: microbe, parasite or virus in culture; type: cell-based; details: read-out: Minimum Inhibitory Concentration
Hemophilus vaginalis = experiment: MIC anaerobic screen; type: cell-based; details: Table IV
T. mentagrophytes = experiment: MIC against dermatophytes; type: cell-based; details: Trichophyton mentagrophytes; Table VI; strain 2637; 26° C., 48 hours; read-out: Minimum Inhibitory Concentration
M. canis = experiment: MIC against dermatophytes; type: cell-based; details: Microsporum canis; Table VI; strain 9237; 26° C., 48 hours; read-out: Minimum Inhibitory Concentration
Trichomonas vaginalis = experiment: MIC against Trichomonas vaginalis; type: cell-based; details: Table VII, strain 8560, anaerobic, 37° C., 40 hours, read-out: Minimum Inhibitory Concentration
solubility = type: physicochemical
[1] = test system: gram-positive and gram-negative bacteria, yeasts, fungi, acholeplasma, and the protozoan Trichomonas vaginalis; experiment: biological activity, general statement; details: A form versus B form
Enterobacter cloacae = experiment: MIC aerobic screen, BA-2 agar; details: Enterobacter cloacae, strain 10,459
Escherichia coli = experiment: MIC aerobic screen, BA-2 agar; details: Escherichia coli
Klebsiella aerogenes = experiment: MIC aerobic screen, BA-2 agar; details: Klebsiella aerogenes, strain 10,436
Klebsiella pneumoniae = experiment: MIC aerobic screen, BA-2 agar
Proteus morganii = experiment: MIC aerobic screen, BA-2 agar; details: Morganella morganii, strain 9774
Staphylococcus aureus = experiment: MIC aerobic screen, BA-2 agar; details: Staphylococcus aureus
Proteus rettgeri = experiment: MIC aerobic screen, BA-2 agar; details: Providencia rettgeri, read-out: Minimum Inhibitory Concentration
[2] = test system: Acinetobacter calcoaceticus; experiment: MIC aerobic screen, H-59 synthetic agar; details: read-out: Minimum Inhibitory Concentration
[3] = read-out: Minimum Inhibitory Concentration, Table I, BA-2 agar
[4] = read-out: Minimum Inhibitory Concentration, Table II, additional tests

CC1(O)CC(C(N)=O)N=C1c1ncccc1O (stereo not drawn) [EM4940A, 2,4-trans-3,4-dihydro-4-hydroxy-5-(3-hydroxy-2-pyridinyl)-4-methyl-2H-pyrrole-2-carboxamide]
MIC (Shigella sonnei): 50 µg/mL (≈ 213 µM) | MIC (Bifidobacterium dentium): > 100 µg/mL | MIC (Clostridium perfringens): 50 µg/mL (≈ 213 µM) | MIC (Hemophilus vaginalis; strain 8568, read-out: Minimum Inhibitory Concentration): 100 µg/mL (≈ 425 µM) | Minimum Inhibitory Concentration (Hemophilus vaginalis; strain 9640): 100.00 µg/mL | MIC (T. mentagrophytes): > 100 µg/mL | MIC (M. canis): 100 µg/mL (≈ 425 µM) | MIC (Trichomonas vaginalis): 12.5 µg/mL (≈ 53.1 µM) | solubility (solubility; hexane): Insoluble | solubility (solubility; methanol, ethanol, ethyl acetate, acetone and chloroform): soluble | solubility (solubility; water): Insoluble | biological activity of A form relative to B form [1]: more active than the B form | MIC (Enterobacter cloacae; [3]): > 100 µg/mL | MIC (Enterobacter cloacae; [4]): 50 µg/mL (≈ 213 µM) | MIC (Escherichia coli; read-out: Minimum Inhibitory Concentration, Table I, BA-2 agar, strain 10,404): 100 µg/mL (≈ 425 µM) | MIC (Escherichia coli; read-out: Minimum Inhibitory Concentration, Table I, BA-2 agar, strain 10,857): 50 µg/mL (≈ 213 µM) | MIC (Escherichia coli; read-out: Minimum Inhibitory Concentration, Table I, BA-2 agar, strain 10,896): 25 µg/mL (≈ 106 µM) | MIC (Escherichia coli; read-out: Minimum Inhibitory Concentration, Table II, additional tests, strain 10,404): 50 µg/mL (≈ 213 µM) | MIC (Escherichia coli; read-out: Minimum Inhibitory Concentration, Table II, additional tests, strain 10,857): 50 µg/mL (≈ 213 µM) | MIC (Klebsiella aerogenes; [3]): 100 µg/mL (≈ 425 µM) | MIC (Klebsiella aerogenes; [4]): 50 µg/mL (≈ 213 µM) | MIC (Klebsiella pneumoniae; Klebsiella pneumoniae, read-out: Minimum Inhibitory Concentration): 50 µg/mL (≈ 213 µM) | Minimum Inhibitory Concentration (Klebsiella pneumoniae; Table II, additional tests, strain 11,066): 50 µg/mL | MIC (Proteus morganii; [3]): 50 µg/mL (≈ 213 µM) | MIC (Proteus morganii; [4]): 100 µg/mL (≈ 425 µM) | MIC (Staphylococcus aureus; read-out: Minimum Inhibitory Concentration, Table I, BA-2 agar, strain 2400): > 100 µg/mL | MIC (Staphylococcus aureus; read-out: Minimum Inhibitory Concentration, Table I, BA-2 agar, strain 10,165): 50 µg/mL (≈ 213 µM) | MIC (Staphylococcus aureus; read-out: Minimum Inhibitory Concentration, Table I, BA-2 agar, strain 11,239): > 100 µg/mL | MIC (Staphylococcus aureus; read-out: Minimum Inhibitory Concentration, Table II, additional tests, strain 2400): > 200 µg/mL | MIC (Staphylococcus aureus; read-out: Minimum Inhibitory Concentration, Table II, additional tests, strain 2661): > 200 µg/mL | MIC (Staphylococcus aureus; read-out: Minimum Inhibitory Concentration, Table II, additional tests, strain 10,165): 100 µg/mL (≈ 425 µM) | MIC (Staphylococcus aureus; read-out: Minimum Inhibitory Concentration, Table II, additional tests, strain 11,239): 50 µg/mL (≈ 213 µM) | MIC (Proteus rettgeri): 50 µg/mL (≈ 213 µM) | MIC [2]: 25 µg/mL (≈ 106 µM)
